Measurements as given in patent US9309242B2, “Substituted pyrido[2,3-b]pyrazines as FGFR kinase inhibitors” (priority 2011, dated 2016).
Like-named read-outs stand apart in the source and are kept apart here.

Key:
FGFR4 (h) = FGFR4 (h) (Homo sapiens, UniProt P22455); experiment: FGFR4 (enzymatic assay), TR-FRET; assay type: biochemical; conditions: FGFR 4 pIC50, enzymatic assay; average values if tested multiple times
[1] = test system: Ba/F3-FGFR3-transfected cells; experiment: Ba/F3-FGFR3 (plus IL3) cellular proliferation assay, counterscreen with 10 ng/ml murine IL3; assay type: cell-based; conditions: plus IL3 (10 ng/ml murine IL3, counterscreen)
How it was run: (§1)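 Ba/F3 cells transfected with FGFR3, 20000/well in phenol red-free RPMI-1640 with 10% FBS, exposed to compound for 24 h at 37 °C, 5% CO2. Alamar Blue (resazurin) added for 4 h more; fluorescence read at ex 540/em 590 nm. Counterscreen run the same way with 10 ng/ml murine IL3.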

[2] = molecular target: Ba/F3-FGFR4-transfected cells (Homo sapiens, UniProt P22455); experiment: Ba/F3-FGFR4 cellular proliferation assay, Alamar Blue; assay type: cell-based
Chain of Ba/F3-FGFR4-transfected cells (P22455 whole entry, change not shown): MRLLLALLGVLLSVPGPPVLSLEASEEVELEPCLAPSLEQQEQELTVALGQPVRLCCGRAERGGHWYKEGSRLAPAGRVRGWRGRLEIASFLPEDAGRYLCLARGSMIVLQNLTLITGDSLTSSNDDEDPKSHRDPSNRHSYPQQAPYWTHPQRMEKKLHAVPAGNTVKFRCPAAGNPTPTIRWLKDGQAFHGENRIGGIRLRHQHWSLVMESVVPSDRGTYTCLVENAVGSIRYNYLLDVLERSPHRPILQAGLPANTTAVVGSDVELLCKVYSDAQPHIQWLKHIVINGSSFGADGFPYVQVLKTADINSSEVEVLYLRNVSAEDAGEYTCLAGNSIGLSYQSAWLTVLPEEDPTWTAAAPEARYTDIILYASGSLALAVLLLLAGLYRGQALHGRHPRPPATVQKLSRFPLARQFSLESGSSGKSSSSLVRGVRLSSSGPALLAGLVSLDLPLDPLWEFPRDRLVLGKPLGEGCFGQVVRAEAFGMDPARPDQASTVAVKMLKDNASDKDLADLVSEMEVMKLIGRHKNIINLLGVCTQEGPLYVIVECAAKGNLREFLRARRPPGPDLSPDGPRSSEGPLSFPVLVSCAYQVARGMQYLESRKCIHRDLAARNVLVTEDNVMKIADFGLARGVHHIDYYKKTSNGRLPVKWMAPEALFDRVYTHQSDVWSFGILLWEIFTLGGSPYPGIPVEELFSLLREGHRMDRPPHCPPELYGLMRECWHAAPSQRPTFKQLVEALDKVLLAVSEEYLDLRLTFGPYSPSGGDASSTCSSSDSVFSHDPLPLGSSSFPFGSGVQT
How it was run: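 Fluorescence read-out (ex. 540 nm, em. 590 nm) of resazurin-based Alamar Blue after 4 h, following 24 h compound exposure of Ba/F3-FGFR4-transfected cells (20000/well) at 37° C, 5% CO2.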

[3] = test system: Ba/F3-FGFR1-transfected cells; experiment: Ba/F3-FGFR1 (plus IL3) cellular proliferation assay, counterscreen with 10 ng/ml murine IL3; assay type: cell-based; conditions: plus IL3 (10 ng/ml murine IL3, counterscreen)
How it was run: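 Proliferation read-out: resazurin-based Alamar Blue fluorescence (540/590 nm) after 4 h, following 24 h compound treatment of 20000 Ba/F3-FGFR1 cells per well in 10% FBS RPMI at 37° C. IL3 counterscreen used the same protocol plus 10 ng/ml murine IL3.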

KDR (h) = KDR (h) (Homo sapiens, UniProt P35968); experiment: KDR (VEGFR2) (enzymatic assay), TR-FRET; assay type: biochemical; conditions: read-out: VEGFR 2 (KDR) pIC50 (converted)
Chain of KDR (h) (P35968 20-1356): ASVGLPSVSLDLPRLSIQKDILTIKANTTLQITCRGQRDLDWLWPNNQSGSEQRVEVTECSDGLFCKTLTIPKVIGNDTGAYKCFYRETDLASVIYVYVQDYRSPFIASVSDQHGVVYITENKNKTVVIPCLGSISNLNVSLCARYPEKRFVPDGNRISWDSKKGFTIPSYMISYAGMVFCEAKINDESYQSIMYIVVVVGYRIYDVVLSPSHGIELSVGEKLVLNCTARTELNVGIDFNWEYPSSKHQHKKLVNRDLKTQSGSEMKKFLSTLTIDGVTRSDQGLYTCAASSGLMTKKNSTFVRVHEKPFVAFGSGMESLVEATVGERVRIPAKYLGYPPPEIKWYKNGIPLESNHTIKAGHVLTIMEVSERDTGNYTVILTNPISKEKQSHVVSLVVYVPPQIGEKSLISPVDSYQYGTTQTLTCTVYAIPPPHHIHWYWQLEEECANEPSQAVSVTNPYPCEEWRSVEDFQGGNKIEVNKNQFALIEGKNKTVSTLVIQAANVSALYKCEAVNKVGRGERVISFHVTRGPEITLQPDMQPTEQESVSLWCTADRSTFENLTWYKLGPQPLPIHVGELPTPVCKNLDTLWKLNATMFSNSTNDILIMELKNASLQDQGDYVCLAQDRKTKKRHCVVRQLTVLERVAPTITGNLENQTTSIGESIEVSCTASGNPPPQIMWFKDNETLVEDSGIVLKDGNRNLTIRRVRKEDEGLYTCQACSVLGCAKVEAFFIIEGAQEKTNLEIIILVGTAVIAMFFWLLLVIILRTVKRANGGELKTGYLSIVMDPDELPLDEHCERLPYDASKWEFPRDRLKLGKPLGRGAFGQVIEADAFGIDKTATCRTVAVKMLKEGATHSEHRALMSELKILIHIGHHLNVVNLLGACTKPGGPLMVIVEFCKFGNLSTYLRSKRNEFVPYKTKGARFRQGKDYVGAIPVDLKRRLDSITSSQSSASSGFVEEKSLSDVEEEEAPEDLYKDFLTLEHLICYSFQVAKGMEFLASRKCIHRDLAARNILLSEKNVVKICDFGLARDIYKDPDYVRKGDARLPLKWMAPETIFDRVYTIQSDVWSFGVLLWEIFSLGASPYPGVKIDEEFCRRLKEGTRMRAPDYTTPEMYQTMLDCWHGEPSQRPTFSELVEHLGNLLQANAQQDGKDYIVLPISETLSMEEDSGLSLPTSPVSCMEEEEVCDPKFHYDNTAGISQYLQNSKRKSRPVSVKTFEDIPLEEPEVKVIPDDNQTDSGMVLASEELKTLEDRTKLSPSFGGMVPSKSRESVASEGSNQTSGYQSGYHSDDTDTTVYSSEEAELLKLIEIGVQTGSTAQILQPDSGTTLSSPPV
How it was run: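 3 μM ATP, 500 nM Btn-Flt3 substrate, 150 ng/ml kinase; HEPES pH 7.5 with MnCl2, DTT, vanadate, Triton; 1% DMSO. 120 min RT. Stop: EDTA + Eu-anti-P-Tyr + SA-XL-665, 60 min RT. Readout TR-FRET ex340/em620, 655 nm, RFU.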

FGFR3 (h) = FGFR3 (h) (Homo sapiens, UniProt P22607); experiment: FGFR3 (enzymatic assay), TR-FRET; assay type: biochemical; conditions: average values if tested multiple times, read-out: FGFR 3 pIC50 (converted)
Excerpt: Time-Resolved Fluorescence Resonance Energy Transfer (TR-FRET) signal (ex340 nm.

[4] = molecular target: T1, Ba/F3-FGFR3-transfected cells (Homo sapiens, UniProt P22607); experiment: Ba/F3-FGFR3 (minus IL3) cellular proliferation assay, Alamar Blue; assay type: cell-based
T1 construct: BAF3-FGFR3 (MIN IL3) pIC50; other: minus IL3
How it was run: as §1

FGFR1 (h) = FGFR1 (h) (Homo sapiens, UniProt P11362); experiment: FGFR1 (enzymatic assay), TR-FRET; assay type: biochemical; conditions: average values if tested multiple times, read-out: FGFR 1 pIC50 (converted)
Chain of FGFR1 (h) (P11362 22-822): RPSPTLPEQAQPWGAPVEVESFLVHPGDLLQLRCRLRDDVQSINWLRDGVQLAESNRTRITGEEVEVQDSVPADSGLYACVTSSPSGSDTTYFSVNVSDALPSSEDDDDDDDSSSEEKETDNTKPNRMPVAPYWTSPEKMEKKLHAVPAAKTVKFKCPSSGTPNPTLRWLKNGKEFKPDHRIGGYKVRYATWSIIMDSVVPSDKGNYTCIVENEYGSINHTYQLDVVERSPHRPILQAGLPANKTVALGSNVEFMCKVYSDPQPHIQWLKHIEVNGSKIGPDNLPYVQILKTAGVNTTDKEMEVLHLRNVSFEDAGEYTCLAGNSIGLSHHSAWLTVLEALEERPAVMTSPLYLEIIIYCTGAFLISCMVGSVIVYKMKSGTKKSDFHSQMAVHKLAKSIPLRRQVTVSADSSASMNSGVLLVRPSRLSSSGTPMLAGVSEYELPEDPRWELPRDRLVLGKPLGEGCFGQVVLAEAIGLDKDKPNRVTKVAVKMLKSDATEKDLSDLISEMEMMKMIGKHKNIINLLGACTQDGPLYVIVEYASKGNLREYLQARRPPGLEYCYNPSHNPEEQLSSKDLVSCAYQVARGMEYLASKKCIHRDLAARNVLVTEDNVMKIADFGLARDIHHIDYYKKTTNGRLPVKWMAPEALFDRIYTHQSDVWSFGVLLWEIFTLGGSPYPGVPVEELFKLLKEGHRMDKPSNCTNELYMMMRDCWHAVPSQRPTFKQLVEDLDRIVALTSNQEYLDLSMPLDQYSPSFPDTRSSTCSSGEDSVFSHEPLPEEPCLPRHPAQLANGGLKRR

[5] = molecular target: T2, Ba/F3-KDR-transfected cells (Homo sapiens, UniProt P35968); experiment: Ba/F3-KDR (minus IL3) cellular proliferation assay, Alamar Blue; assay type: cell-based
T2 construct: BAF3-KDR (MIN IL3) pIC50; other: minus IL3
T2 sequence (P35968 whole entry, change not shown): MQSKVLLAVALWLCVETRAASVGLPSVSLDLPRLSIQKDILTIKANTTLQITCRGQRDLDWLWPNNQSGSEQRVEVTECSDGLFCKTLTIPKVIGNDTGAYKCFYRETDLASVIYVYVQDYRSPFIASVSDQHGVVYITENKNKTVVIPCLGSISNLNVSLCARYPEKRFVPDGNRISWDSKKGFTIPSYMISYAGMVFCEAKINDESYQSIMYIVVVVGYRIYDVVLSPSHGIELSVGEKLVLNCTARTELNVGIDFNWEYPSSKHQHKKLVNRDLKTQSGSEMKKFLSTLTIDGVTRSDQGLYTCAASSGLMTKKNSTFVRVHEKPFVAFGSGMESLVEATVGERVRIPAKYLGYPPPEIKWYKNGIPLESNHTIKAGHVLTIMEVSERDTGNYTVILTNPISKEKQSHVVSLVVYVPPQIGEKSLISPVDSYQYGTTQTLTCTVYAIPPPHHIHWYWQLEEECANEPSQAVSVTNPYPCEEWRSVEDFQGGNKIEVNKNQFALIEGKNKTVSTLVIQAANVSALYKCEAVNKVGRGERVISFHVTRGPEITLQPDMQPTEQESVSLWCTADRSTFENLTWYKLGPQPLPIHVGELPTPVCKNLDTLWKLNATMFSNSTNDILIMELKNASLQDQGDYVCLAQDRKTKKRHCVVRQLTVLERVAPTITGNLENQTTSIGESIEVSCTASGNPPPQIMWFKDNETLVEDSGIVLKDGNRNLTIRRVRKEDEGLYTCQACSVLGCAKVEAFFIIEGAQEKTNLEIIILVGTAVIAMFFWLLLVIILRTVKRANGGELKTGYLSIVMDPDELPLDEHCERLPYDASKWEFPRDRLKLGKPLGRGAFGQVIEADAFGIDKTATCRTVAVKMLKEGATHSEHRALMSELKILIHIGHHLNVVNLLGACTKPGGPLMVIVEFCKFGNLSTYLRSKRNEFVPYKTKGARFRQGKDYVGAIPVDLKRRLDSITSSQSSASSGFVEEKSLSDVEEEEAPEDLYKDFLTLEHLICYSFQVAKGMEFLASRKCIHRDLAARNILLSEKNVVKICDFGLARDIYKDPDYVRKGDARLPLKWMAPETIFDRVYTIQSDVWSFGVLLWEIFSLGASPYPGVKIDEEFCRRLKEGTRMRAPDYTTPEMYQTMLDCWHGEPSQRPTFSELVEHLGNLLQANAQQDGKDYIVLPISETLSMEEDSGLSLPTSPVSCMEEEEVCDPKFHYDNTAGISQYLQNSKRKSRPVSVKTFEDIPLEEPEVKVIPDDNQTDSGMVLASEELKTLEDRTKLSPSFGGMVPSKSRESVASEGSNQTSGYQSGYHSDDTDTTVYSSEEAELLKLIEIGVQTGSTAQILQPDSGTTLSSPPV
How it was run: (§2)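 Read-out: resazurin-based Alamar Blue fluorescence (ex. 540, em. 590 nm) after 4 h. Before that, cells were incubated with compound for 24 h at 37° C. The counterscreen ran identically but with IL3 supplemented.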

[6] = molecular target: T3, Ba/F3-FGFR1-transfected cells (Homo sapiens, UniProt P11362); experiment: Ba/F3-FGFR1 (minus IL3) cellular proliferation assay, Alamar Blue; assay type: cell-based
T3 construct: BAF3-FGFR1 (MIN IL3) pIC50; other: minus IL3
How it was run: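 Ba/F3-FGFR1 cells (20000 per well) were exposed to compound for 24 h at 37 °C in RPMI-1640 with 10% FBS. Alamar Blue (resazurin) was then added for 4 h, and fluorescence was read at ex 540/em 590 nm.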

[7] = test system: Ba/F3-KDR-transfected cells; experiment: Ba/F3-KDR (plus IL3) cellular proliferation assay, counterscreen with 10 ng/ml murine IL3; assay type: cell-based; conditions: plus IL3 (10 ng/ml murine IL3, counterscreen)
How it was run: as §2

FGFR2 (h) = FGFR2 (h) (Homo sapiens, UniProt P21802); experiment: FGFR2 (enzymatic assay), TR-FRET; assay type: biochemical; conditions: enzymatic assay; average values if tested multiple times; read-out: FGFR 2 pIC50 (converted)
How it was run: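 At low ATP (0.4 μM), enzyme activity of human FGFR2 (150 ng/ml) toward biotinylated Flt3 substrate (500 nM) was followed with test compound present. Reactions ran in 50 mM HEPES pH 7.5, 6 mM MnCl2, 1 mM DTT, 0.1 mM Na3VO4, 0.01% Triton-X-100, 1% DMSO.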

[8] = average values if tested multiple times

Chain of FGFR4 (h) (P22455 22-802): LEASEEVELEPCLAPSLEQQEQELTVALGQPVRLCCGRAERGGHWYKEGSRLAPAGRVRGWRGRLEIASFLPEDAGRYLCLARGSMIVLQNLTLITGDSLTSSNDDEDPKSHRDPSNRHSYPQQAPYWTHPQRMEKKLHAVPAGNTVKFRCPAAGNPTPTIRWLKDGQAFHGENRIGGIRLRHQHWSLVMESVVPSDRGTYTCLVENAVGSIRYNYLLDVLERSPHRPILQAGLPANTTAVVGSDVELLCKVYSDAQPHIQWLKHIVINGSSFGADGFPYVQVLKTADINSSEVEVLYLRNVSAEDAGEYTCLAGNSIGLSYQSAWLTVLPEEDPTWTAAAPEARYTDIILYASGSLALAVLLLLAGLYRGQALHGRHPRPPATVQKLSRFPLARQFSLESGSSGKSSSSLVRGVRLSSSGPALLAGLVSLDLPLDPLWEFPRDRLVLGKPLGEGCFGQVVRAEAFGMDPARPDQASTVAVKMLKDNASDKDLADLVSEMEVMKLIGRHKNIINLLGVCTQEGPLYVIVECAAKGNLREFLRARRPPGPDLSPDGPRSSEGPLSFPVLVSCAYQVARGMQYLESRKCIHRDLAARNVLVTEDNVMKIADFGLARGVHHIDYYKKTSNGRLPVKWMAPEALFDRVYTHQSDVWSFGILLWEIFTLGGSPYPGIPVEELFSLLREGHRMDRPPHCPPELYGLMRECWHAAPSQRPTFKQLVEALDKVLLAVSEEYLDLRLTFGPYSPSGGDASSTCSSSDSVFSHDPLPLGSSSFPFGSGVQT

COc1cc(OC)c(F)c(/N=c2\ccc3ncc(-c4cnn(C)c4)nc3n2CC2CCC(=O)N2)c1F (centres unmarked) [Compound 47]
IC50 (FGFR4 (h)): 1.45 nM | BAF3-FGFR3 (PLUS IL3) pIC50 [1]: <5 | BAF3-FGFR4 pIC50 [2]: 6.70 | BAF3-FGFR1 (PLUS IL3) pIC50 [3]: <5 | melting point: 169 °C | IC50 (KDR (h); [8]): 12.6 nM | IC50 (FGFR3 (h)): ~0.933 nM | BAF3-FGFR3 (MIN IL3) pIC50 [4]: ~7.76 | IC50 (FGFR1 (h)): 0.661 nM | BAF3-KDR (MIN IL3) pIC50 [5]: 6.28 | BAF3-FGFR1 (MIN IL3) pIC50 [6]: 7.86 | BAF3-KDR (PLUS IL3) pIC50 [7]: <5 | IC50 (FGFR2 (h)): 1.41 nM

COc1cc(OC)cc(N(CC2CCC(=O)N2)c2ccc3ncc(-c4cnn(C)c4)nc3n2)c1 (centres unmarked) [Compound 54]
IC50 (FGFR4 (h)): 17.4 nM | BAF3-FGFR3 (PLUS IL3) pIC50 [1]: <5 | BAF3-FGFR4 pIC50 [2]: 6.05 | BAF3-FGFR1 (PLUS IL3) pIC50 [3]: <5 | melting point: 125 °C | IC50 (KDR (h); [8]): 66.1 nM | IC50 (FGFR3 (h)): 3.02 nM | BAF3-FGFR3 (MIN IL3) pIC50 [4]: 6.83 | IC50 (FGFR1 (h)): 6.76 nM | BAF3-KDR (MIN IL3) pIC50 [5]: 5.39 | BAF3-FGFR1 (MIN IL3) pIC50 [6]: 6.64 | BAF3-KDR (PLUS IL3) pIC50 [7]: <5 | IC50 (FGFR2 (h)): 4.9 nM

COc1cc(OC)cc(N(CCNC(C)=O)c2ccc3ncc(-c4cnn(C)c4)nc3n2)c1 [Compound 235]
IC50 ([1]; read-out: BAF3-FGFR3 (PLUS IL3) pIC50 (converted)): > 10000 nM | IC50 ([3]; read-out: BAF3-FGFR1 (PLUS IL3) pIC50 (converted)): > 10000 nM | melting point: 193 °C | IC50 (KDR (h)): 79.4 nM | BAF3-KDR (MIN IL3) pIC50 [5]: 5.62 | IC50 ([7]; read-out: BAF3-KDR (PLUS IL3) pIC50 (converted)): > 10000 nM
